Results published in patent US10947285B2, “Compounds, compositions and uses thereof for improvement of bone disorders” (Amolyt Pharma, priority 2017, dated 2021).
Non-standard residues stand in square brackets, D forms with d. Residues, ends and D or L forms follow the SMILES beside them. Primed or numbered codes have the meaning given here. No end group written: not given here. *: point of attachment. PEG20′ = PEG20 chain (pegylated), attached via a cysteine; C16 diacid = O=C(O)CCCCCCCCCCCCCCC(=O)*; Arachidoyl = CCCCCCCCCCCCCCCCCCCC(=O)*; Stearoyl = CCCCCCCCCCCCCCCCCC(=O)*; Palmitoyl = CCCCCCCCCCCCCCCC(=O)*; Myristoyl = CCCCCCCCCCCCCC(=O)*

What was measured:
[1] = system: MC-3T3 E1 clone 4 (CL4) osteoblast cells; assay: in vitro osteoblast differentiation bioassay (stimulation of osteocalcin protein synthesis); type: cell-based
Experimental: Each peptide was tested in a biologic assay measuring its ability to stimulate differentiation of osteoblast cells over a 18-21 day interval (Table 8) or a 14-15 day interval (Table 9) as assessed by the stimulation of osteocalcin protein synthesis. MC-3T3 E1 clone 4 (CL4) osteoblast cells were obtained from ATCC (Manassas, Va., USA). Cells were cultured in α-MEM containing 10% fetal bovine serum (FBS; Thermo Fisher Scientific, Pittsburgh, Pa., USA). After confluency, culture medium was changed to differentiation medium (DM), which contained 10% FBS plus 50 μg/mL ascorbic acid and 4 mM β-glycerol phosphate, with or without a test peptide (1 μg/mL in Table 8 or 1 μmol/L in Table 9). Fresh DM, with or without test peptide, was applied every 72 hours. The cell monolayers were lysed in a modified radioimmunoprecipitation assay (RIPA) buffer. Total cellular protein in the lysates was determined using BCA (Thermo Fisher Scientific, Rockford, Ill., USA). Cell proteins are separated on SDS-PAGE gel and transferred on PVDF membrane for analysis. Osteocalcin detection was performed using anti-osteocalcin antibody at 1:200 dilution (Santa Cruz Biotechnology, Inc, Santa Cruz, Calif., USA) or at 1:3000 dilution (NPT Inc., Chapel Hill, N.C., USA) and visualized using enhanced chemiluminescence (Thermo Fisher Scientific, Rockford, Ill., USA).
The peptide was tested at different concentrations in a biologic assay measuring its ability to stimulate differentiation of osteoblast cells over a 18 day interval as assessed by the stimulation of osteocalcin protein synthesis. MC-3T3 E1 clone 4 (CL4) osteoblast cells were obtained from ATCC (Manassas, Va., USA). Cells were cultured in α-MEM containing 10% fetal bovine serum (FBS; Thermo Fisher Scientific, Pittsburgh, Pa., USA). After confluency, culture medium was changed to differentiation medium (DM), which contained 10% FBS plus 50 μg/mL ascorbic acid and 4 mM β-glycerol phosphate, with or without an ascending dose of the peptide from 0.1 μg/mL to 4 μg/mL. Fresh DM, with or without the peptide, was applied every 72 hours. The cell monolayers were lysed in a modified radioimmunoprecipitation assay (RIPA) buffer. Total cellular protein in the lysates was determined using BCA (Thermo Fisher Scientific, Rockford, Ill., USA). Cell proteins are separated on SDS-PAGE gel and transferred on PVDF membrane for analysis. Osteocalcin detection was performed using anti-osteocalcin antibody at 1:200 dilution (Santa Cruz Biotechnology, Inc, Santa Cruz, Calif., USA) and visualized using enhanced chemiluminescence (Thermo Fisher Scientific, Rockford, Ill., USA).
Each peptide was tested in a biologic assay measuring its ability to stimulate differentiation of osteoblast cells over a 15 day interval as assessed by the stimulation of osteocalcin protein synthesis. MC-3T3 E1 clone 4 (CL4) osteoblast cells were obtained from ATCC (Manassas, Va., USA). Cells were cultured in α-MEM containing 10% fetal bovine serum (FBS; Thermo Fisher Scientific, Pittsburgh, Pa., USA). After confluency, culture medium was changed to differentiation medium (DM), which contained 10% FBS plus 50 μg/mL ascorbic acid and 4 mM β-glycerol phosphate, with or without a test peptide (1 μg/mL). Fresh DM, with or without test peptide, was applied every 72 hours for 15 days. The cell monolayers were lysed in a modified radioimmunoprecipitation assay (RIPA) buffer. Total cellular protein in the lysates was determined using BCA (Thermo Fisher Scientific, Rockford, Ill., USA). Cell proteins are separated on SDS-PAGE gel and transferred on PVDF membrane for analysis. Osteocalcin detection was performed using anti-osteocalcin antibody at 1:200 dilution (Santa Cruz Biotechnology, Inc, Santa Cruz, Calif., USA) and visualized using enhanced chemiluminescence (Thermo Fisher Scientific, Rockford, Ill., USA). […]

[2] = Pharmacokinetic of acylated HBD-1 fragment analogs in male Sprague Dawley rats after subcutaneous injection; type: in vivo; details: Table 24, sc, 1 μmol net peptide/kg
Experimental: The peptides were reconstituted in saline (0.9% NaCl). Three male Sprague Dawley rats (approximately 6 weeks of age) were used per group. Subcutaneous doses were administered into the right flank of each animal at the target dose level of 1 μmol net peptide/kg. Following dosing, serial whole blood samples (ca. 0.3 mL) were collected from retro-orbital sinus into K2EDTA treated containers. Following each blood sample collection, samples were placed into a cooling block at 4° C. Samples were collected prior to dosing then at 15 and 30 minutes then 1, 2, 4, 6, 8 and 24 hours post dose for subcutaneous injection. Blood samples were centrifuged at 3500×rpm for 10 minutes at 4° C. and resultant plasma aspirated off into clean fully, labelled tubes. Plasma samples were snap frozen following aspiration then stored at −80° C. The peptides were extracted with acetonitrile:water (75:25, v/v) and analyzed using developed LC-MS/MS methods as described in Example 9. The limits of detection of these methods are 0.003 nmol/mL for HBD1 (1-13) with palmitic acid at the N-terminus (C16:0), 0.0008 nmol/mL for HBD1 (3-11) with palmitic acid at the N-terminus (C16:0), 0.0070 nmol/mL for HBD1 (3-11) with stearic acid at the N-terminus (C18:0), and 0.0015 nmol/mL for HBD1 (3-11) with myristic acid at the N-terminus (C14:0), HBD1 (3-11) with arachidic acid at the N-terminus (C20:0), HBD1 (3-11) with palmitic diacid at the N-terminus (C16:0-diacid), HBD1 (3-11) with palmitic acid at the C-terminus (C16:0). All values below these limits of quantification were considered as zero.

[3] = Stability of HBD1 fragments in human plasma; type: in vitro ADME; details: 24 and 48 hours incubation at 37° C.
Experimental: The peptides were spiked at 1 μg/mL (peptide backbone) into pre-warmed human K2EDTA plasma (at 37° C.) and incubated for up to 48 hours. Aliquots of plasma were extracted at specific time points (0, 24 and 48 hours post spike). Extraction was performed with acetonitrile:water (75:25, v/v) for HBD1 (1-13), HBD1 (1-13) with palmitic acid at the N-terminus (C16:0), HBD1 (3-11) with palmitic acid at the N-terminus (C16:0)) and HBD1 (3-11) with stearic acid at the N-terminus (C18:0) or with acetonitrile:water:formic acid (75:25:0.1, v/v/v) for HBD1 (3-11) and cyclic HBD1 (3-11). The peptides were analyzed using developed LC (C18 reverse phase column)—positive ion electrospray MS/MS methods specific to each peptide. The peak area at each time point was expressed as a percentage of the value obtained for the t=0 minutes time point.

[4] = Table 17, PEGylated fragments, 2 μg/mL, 18-21 day interval

Molecule | Tlast (last time point with detectable peptide) [2] [h] | Fold increase vs DM ± SE [1, 4] [fold] | other results
63 ([PEG20′]CKHHLGLEEPKKLR; not fully specified (some residues); printed as PEG20-C-KHHLGLEEPKKLR) [compound 63] |  | 1.4 ± 0.3 | 
64 (KHHLGLEEPKKLR; not fully specified; MOD_RES (13)..(13) Pegylated) [compound 64] |  | 2.2 ± 0.4 | 
65 ([PEG20′]CHHLGLEEPKK; not fully specified (some residues); printed as PEG20-C-HHLGLEEPKK) [compound 65] |  | 1.4 ± 0.1 | 
66 (HHLGLEEPKK; not fully specified; MOD_RES (10)..(10) Pegylated) [compound 66] |  | 2.2 ± 0.2 | 
67 ([PEG20′]CHLGLEEPKK; not fully specified (some residues); printed as PEG20-C-HLGLEEPKK) [compound 67] |  | 1.9 ± 0.2 | 
CCCCCCCCCCCCCC(=O)N[C@@H](Cc1c[nH]cn1)C(=O)N[C@@H](CC(C)C)C(=O)NCC(=O)N[C@@H](CC(C)C)C(=O)N[C@@H](CCC(=O)O)C(=O)N[C@@H](CCC(=O)O)C(=O)N1CCC[C@H]1C(=O)N[C@@H](CCCCN)C(=O)N[C@@H](CCCCN)C(=O)O [compound 71] (Myristoyl-HLGLEEPKK-OH; C-terminus assumed) | 6 |  | 
CC(C)C[C@@H]1NC(=O)CNC(=O)[C@H](CC(C)C)NC(=O)[C@H](Cc2c[nH]cn2)NC(=O)[C@H](CCCCN)NC(=O)[C@H](CCCCN)NC(=O)[C@@H]2CCCN2C(=O)[C@H](CCC(=O)O)NC(=O)[C@H](CCC(=O)O)NC1=O [compound 77] (cyclo(EEPKKHLGL)) |  |  | stability in human plasma (in words) [3]: plasma stability profile similar to that of the corresponding unconjugated linear peptide HBD1 (3-11)

Continued, in another order:

Tlast (last time point with detectable peptide) [2] [h] | Molecule | Fold increase vs DM ± SE [1, 4] [fold] | other results
8 | CCCCCCCCCCCCCCCC(=O)N[C@@H](Cc1c[nH]cn1)C(=O)N[C@@H](CC(C)C)C(=O)NCC(=O)N[C@@H](CC(C)C)C(=O)N[C@@H](CCC(=O)O)C(=O)N[C@@H](CCC(=O)O)C(=O)N1CCC[C@H]1C(=O)N[C@@H](CCCCN)C(=O)N[C@@H](CCCCN)C(=O)O [compound 72] (Palmitoyl-HLGLEEPKK-OH) |  | stability in human plasma (in words) [3]: plasma stability profile similar to that of the corresponding unconjugated linear peptide HBD1 (3-11)
8 | CCCCCCCCCCCCCCCCCC(=O)N[C@@H](Cc1c[nH]cn1)C(=O)N[C@@H](CC(C)C)C(=O)NCC(=O)N[C@@H](CC(C)C)C(=O)N[C@@H](CCC(=O)O)C(=O)N[C@@H](CCC(=O)O)C(=O)N1CCC[C@H]1C(=O)N[C@@H](CCCCN)C(=O)N[C@@H](CCCCN)C(=O)O [compound 73] (Stearoyl-HLGLEEPKK-OH) |  | Fold increase vs DM ± SE ([1]; Table 19, dose 1.0 μM, 18 day interval): 3.46 ± 0.47 fold; Fold increase vs DM ± SE ([1]; Table 19, dose 2.0 μM, 18 day interval): 4.48 ± 0.07 fold; Fold increase vs DM ± SE ([1]; Table 19, dose 3.0 μM, 18 day interval): 5.66 ± 0.45 fold; stability in human plasma (in words) [3]: plasma stability profile similar to that of the corresponding unconjugated linear peptide HBD1 (3-11)
8 | CCCCCCCCCCCCCCCCCCCC(=O)N[C@@H](Cc1c[nH]cn1)C(=O)N[C@@H](CC(C)C)C(=O)NCC(=O)N[C@@H](CC(C)C)C(=O)N[C@@H](CCC(=O)O)C(=O)N[C@@H](CCC(=O)O)C(=O)N1CCC[C@H]1C(=O)N[C@@H](CCCCN)C(=O)N[C@@H](CCCCN)C(=O)O [compound 74] (Arachidoyl-HLGLEEPKK-OH; C-terminus assumed) |  | 
8 | CC(C)C[C@H](NC(=O)CNC(=O)[C@H](CC(C)C)NC(=O)[C@H](Cc1c[nH]cn1)NC(=O)CCCCCCCCCCCCCCC(=O)O)C(=O)N[C@@H](CCC(=O)O)C(=O)N[C@@H](CCC(=O)O)C(=O)N1CCC[C@H]1C(=O)N[C@@H](CCCCN)C(=O)N[C@@H](CCCCN)C(=O)O [compound 75] ({C16 diacid}-HLGLEEPKK-OH; C-terminus assumed) |  | 
8 | CCCCCCCCCCCCCCCC(=O)NCCCC[C@H](NC(=O)[C@H](CCCCN)NC(=O)[C@@H]1CCCN1C(=O)[C@H](CCC(=O)O)NC(=O)[C@H](CCC(=O)O)NC(=O)[C@H](CC(C)C)NC(=O)CNC(=O)[C@H](CC(C)C)NC(=O)[C@@H](N)Cc1c[nH]cn1)C(=O)O [compound 76] (H-HLGLEEPKK(Palmitoyl)-OH; N-terminus and C-terminus assumed) |  | 
8 | CCCCCCCCCCCCCCCC(=O)N[C@@H](CCCCN)C(=O)N[C@@H](Cc1c[nH]cn1)C(=O)N[C@@H](Cc1c[nH]cn1)C(=O)N[C@@H](CC(C)C)C(=O)NCC(=O)N[C@@H](CC(C)C)C(=O)N[C@@H](CCC(=O)O)C(=O)N[C@@H](CCC(=O)O)C(=O)N1CCC[C@H]1C(=O)N[C@@H](CCCCN)C(=O)N[C@@H](CCCCN)C(=O)N[C@@H](CC(C)C)C(=O)N[C@@H](CCCNC(=N)N)C(=O)O [compound 78] (Palmitoyl-KHHLGLEEPKKLR-OH) |  | 
